Columns and labels:
[1] = target: T1, Tyrosine-protein kinase JAK3 (Homo sapiens, UniProt P52333); test: Inhibition of GST-fused JAK3 (811 to 1124 residues)(unknown origin) using Carboxyfluorescein-Ahx-GGEEEEYFELVKKKK peptide as substrate incubated for 30 mins in presence of ATP by caliper microfluidic mobility shift assay
T1 sequence (P52333 whole entry): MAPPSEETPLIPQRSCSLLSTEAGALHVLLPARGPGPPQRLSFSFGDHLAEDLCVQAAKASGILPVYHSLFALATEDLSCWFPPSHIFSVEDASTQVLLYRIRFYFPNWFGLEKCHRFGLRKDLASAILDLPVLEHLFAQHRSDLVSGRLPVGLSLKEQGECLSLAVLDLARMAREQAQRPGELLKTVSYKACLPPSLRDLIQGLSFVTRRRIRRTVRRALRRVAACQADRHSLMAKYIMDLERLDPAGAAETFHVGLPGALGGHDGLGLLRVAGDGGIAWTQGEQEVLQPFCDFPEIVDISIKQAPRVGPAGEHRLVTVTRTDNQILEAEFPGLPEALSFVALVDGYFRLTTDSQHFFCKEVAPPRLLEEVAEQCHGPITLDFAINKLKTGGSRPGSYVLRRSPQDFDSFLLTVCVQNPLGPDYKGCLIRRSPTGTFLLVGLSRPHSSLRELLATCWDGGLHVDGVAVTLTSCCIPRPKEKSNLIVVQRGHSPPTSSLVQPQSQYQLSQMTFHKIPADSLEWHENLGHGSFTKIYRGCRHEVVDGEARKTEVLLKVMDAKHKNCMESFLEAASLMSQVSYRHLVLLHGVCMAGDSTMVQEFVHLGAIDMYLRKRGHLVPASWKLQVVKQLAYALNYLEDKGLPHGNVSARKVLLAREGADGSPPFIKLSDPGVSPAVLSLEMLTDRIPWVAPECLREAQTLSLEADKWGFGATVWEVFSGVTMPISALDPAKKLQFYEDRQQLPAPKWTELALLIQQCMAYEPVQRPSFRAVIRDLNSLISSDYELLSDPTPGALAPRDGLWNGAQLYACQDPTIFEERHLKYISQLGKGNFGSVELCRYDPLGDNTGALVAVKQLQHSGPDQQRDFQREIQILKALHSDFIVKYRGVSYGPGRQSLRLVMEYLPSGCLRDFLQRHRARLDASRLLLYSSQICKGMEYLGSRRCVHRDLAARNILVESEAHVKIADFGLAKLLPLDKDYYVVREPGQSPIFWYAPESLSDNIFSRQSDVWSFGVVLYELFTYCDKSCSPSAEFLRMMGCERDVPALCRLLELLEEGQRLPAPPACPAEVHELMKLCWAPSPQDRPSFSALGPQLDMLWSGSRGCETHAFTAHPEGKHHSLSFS

JAK3/JAK1 = JAK3/JAK1 (Homo sapiens, UniProt P23458+P52333); test: Inhibition of JAK1/3-mediated STAT5 phosphorylation in human M07E cells preincubated for 30 mins followed by IL-15 stimulation measured after 15 mins by flow cytometry; format: cell-based
Sequence of JAK3/JAK1 (P23458 whole entry, one chain of several): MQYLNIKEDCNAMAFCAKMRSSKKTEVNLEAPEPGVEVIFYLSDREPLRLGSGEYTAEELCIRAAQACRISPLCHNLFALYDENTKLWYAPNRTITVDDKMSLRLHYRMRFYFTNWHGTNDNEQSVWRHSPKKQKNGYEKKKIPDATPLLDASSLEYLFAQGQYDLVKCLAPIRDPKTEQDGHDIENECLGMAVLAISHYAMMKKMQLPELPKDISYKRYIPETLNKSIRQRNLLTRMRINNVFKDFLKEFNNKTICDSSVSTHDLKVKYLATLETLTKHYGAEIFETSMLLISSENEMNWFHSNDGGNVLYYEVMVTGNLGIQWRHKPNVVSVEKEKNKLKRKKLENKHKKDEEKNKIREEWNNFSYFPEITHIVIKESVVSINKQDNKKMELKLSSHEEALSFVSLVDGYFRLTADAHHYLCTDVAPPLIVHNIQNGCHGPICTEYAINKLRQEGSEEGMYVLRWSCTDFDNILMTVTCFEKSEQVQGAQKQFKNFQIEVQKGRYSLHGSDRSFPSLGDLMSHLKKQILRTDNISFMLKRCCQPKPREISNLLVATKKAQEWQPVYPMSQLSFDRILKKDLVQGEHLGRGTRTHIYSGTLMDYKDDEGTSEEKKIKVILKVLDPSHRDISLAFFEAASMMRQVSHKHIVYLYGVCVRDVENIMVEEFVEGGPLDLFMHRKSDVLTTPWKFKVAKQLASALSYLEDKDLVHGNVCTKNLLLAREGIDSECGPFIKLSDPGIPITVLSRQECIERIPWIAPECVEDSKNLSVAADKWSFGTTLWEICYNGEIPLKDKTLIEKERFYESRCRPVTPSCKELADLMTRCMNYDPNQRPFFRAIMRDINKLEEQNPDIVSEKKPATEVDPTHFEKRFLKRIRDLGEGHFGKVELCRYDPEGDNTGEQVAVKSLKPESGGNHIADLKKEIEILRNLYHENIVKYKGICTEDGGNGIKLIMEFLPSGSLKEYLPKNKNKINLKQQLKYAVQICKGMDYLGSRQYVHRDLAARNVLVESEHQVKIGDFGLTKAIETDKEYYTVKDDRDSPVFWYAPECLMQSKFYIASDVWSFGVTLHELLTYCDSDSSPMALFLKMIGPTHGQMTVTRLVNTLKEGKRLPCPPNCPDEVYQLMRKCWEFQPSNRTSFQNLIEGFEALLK

JAK2/JAK1 = JAK2/JAK1 (Homo sapiens, UniProt O60674+P23458); test: Inhibition of JAK1/2-mediated STAT1 phosphorylation in human M07E cells preincubated for 30 mins followed by IFN-alpha stimulation measured after 15 mins by flow cytometry; format: cell-based
Sequence of JAK2/JAK1 (P23458 whole entry): as the sequence (P23458 whole entry, one chain of several) above
Sequence of JAK2/JAK1 (O60674 whole entry): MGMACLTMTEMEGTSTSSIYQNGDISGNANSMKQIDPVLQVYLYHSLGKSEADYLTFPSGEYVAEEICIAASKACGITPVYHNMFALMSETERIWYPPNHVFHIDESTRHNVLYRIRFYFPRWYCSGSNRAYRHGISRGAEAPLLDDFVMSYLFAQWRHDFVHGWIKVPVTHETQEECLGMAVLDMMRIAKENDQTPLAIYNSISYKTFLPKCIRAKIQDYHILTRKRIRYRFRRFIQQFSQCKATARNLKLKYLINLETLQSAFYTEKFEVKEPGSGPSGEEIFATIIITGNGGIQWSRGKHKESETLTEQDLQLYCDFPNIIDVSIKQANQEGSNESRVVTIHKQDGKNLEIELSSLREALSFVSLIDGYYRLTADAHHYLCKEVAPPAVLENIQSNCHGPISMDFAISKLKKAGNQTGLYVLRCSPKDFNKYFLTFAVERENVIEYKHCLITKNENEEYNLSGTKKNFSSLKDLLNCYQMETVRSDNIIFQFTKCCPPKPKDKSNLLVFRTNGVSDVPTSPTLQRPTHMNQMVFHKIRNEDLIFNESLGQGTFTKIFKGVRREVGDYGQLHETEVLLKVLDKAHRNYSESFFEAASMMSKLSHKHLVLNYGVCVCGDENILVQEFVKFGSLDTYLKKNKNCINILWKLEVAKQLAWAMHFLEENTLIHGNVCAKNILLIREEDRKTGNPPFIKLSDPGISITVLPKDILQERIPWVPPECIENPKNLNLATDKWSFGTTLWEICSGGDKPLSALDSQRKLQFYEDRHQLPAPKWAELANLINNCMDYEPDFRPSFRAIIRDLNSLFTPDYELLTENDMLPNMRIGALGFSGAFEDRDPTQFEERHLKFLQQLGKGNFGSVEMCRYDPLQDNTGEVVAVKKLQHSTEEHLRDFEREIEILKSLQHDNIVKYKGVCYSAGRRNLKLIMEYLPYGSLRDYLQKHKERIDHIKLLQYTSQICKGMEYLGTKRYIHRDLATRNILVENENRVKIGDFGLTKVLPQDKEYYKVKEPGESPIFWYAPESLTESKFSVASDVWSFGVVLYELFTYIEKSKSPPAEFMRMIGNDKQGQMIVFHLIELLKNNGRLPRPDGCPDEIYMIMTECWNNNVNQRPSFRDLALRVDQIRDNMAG

[2] = Stability in human whole blood assessed as half life at 1 uM incubated upto 8 hrs by LC-MS/MS analysis; format: ADME, tissue-based
[3] = Permeability of compound; format: ADME; conditions: not told; read-out: permeability
[4] = Thermodynamic solubility of the compound at pH 6.8 using crystalline form of sample; format: physicochemical
[5] = Stability of compound under light stress assessed as compound decomposition under sunlight with intensity of 4000 KJ/m2, irradiation of 250 W/m2, wavelength of >290 nm, temperature of 37 degreeC for 4 hrs using crystalline form of sample; format: ADME; conditions: read-out: Drug degradation
[6] = Stability of compound under temperature stress assessed as compound degradation at 50 degreeC measured after 7 days using crystalline form of sample; format: physicochemical; conditions: time 7 day; read-out: Drug degradation
[7] = target: T2, Eukaryotic translation initiation factor 2-alpha kinase 3 (Homo sapiens, UniProt Q9NZJ5); test: Inhibition of EIF2AK3 (unknown origin)
T2 sequence (Q9NZJ5 whole entry): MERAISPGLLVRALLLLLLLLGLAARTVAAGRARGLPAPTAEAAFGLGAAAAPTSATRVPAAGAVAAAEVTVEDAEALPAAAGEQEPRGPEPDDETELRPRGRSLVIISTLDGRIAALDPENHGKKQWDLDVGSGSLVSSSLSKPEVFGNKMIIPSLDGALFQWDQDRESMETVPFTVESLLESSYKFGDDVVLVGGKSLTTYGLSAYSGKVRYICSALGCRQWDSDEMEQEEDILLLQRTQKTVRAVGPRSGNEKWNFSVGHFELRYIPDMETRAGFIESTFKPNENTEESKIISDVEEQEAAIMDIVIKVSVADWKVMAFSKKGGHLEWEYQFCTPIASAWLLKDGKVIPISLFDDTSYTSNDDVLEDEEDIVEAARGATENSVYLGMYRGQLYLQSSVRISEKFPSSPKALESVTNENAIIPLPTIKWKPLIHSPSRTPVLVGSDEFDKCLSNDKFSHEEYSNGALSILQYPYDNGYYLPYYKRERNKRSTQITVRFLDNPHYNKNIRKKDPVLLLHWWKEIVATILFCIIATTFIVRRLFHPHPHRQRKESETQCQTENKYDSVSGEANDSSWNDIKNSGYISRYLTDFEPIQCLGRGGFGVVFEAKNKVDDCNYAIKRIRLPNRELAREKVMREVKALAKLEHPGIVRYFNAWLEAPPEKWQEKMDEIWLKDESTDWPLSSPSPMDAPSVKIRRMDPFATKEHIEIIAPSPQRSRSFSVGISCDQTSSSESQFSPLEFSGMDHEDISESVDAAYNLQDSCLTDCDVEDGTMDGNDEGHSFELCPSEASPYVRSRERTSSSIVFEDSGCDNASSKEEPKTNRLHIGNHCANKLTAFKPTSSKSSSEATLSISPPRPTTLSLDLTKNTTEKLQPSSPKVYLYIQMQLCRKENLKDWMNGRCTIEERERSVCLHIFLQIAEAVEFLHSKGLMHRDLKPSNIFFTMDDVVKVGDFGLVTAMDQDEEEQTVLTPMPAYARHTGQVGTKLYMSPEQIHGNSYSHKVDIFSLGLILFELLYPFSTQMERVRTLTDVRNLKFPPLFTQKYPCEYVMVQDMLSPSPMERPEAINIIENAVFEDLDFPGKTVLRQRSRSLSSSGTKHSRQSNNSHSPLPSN

[8] = Stability in dermis human abdominal skin upto 2.5 % administered topically as ointment treated for 24 hrs followed by removal of ointment and stratum corneum and subsequently stimulated with IL-4/IL-13 measured after 3 hrs; format: ADME, tissue-based, Abdomen skin; conditions: topical_or_ocular, 27 h, route top
[9] = Drug metabolism in rat assessed as excretion of 2-(6-((5-carbamoyl-4-((2-methoxyphenyl)amino)pyridin-2-yl)amino)pyridin-3-yl)acetic acid metabolite by measuring half life; format: ADME

COC[C@@H](C)OC(=O)Cc1ccc(Nc2cc(Nc3ccccc3OC)c(C(N)=O)cn2)nc1
IC50 [1]: 4 nM
IC50 (JAK3/JAK1): 131 nM
IC50 (JAK2/JAK1): 45 nM
half-life at 1 µM [2]: 6 min
Papp [3]: 18 ×10⁻⁶ cm/s
Therm_solubility [4]: 7 ng/mL
degraded at 4 h [5]: 0.1%
degraded at 168 h [6]: 0.4%
IC50 [7]: < 100 nM
Stability [8]: Stable
t1/2 [9]: < 20 min
